Source: publication PMC9995496, “A screen for MeCP2-TBL1 interaction inhibitors using a luminescence-based assay” (Scientific Reports, 2023)
Structures can show the parent of a compound that is named as a salt. Where two headings read alike, the source gives them in different places. Numbered stars: 1 amine (or outer) side, 2 acyl side, 3 side chain; on linkers, the order of the positions; unused ones are H or OH. Bridge positions count the residues as written; N and C are the ends. Square brackets hold non-standard residues; d marks the D form. Peptide text beside a SMILES is read from it. * marks the point of attachment. pTerphenylCO(4''-OnC5H11) = CCCCCOc1ccc(-c2ccc(-c3ccc(C(=O)*)cc3)cc2)cc1; Orn(4R-OH,5R-OH) = O=C([C@H](C[C@@H](O)[C@@H](O)N[*:3])N[*:1])[*:2]; hTyr(3S-OH,4S-OH) = N[C@H](C(=O)O)[C@H](O)[C@@H](O)c1ccc(O)cc1; Pro(3S-OH,4S-Me) = C[C@H]1CN[C@H](C(=O)O)[C@H]1O; Hyp = O=C(O)[C@@H]1C[C@@H](O)CN1

System: PRKACA-PRKAR2A interaction (SmBiT-PRKACA / LgBiT-PRKAR2A), protein kinase A
Parameters: NanoLuc complementation counter-screen in cell extract, PRKACA with PRKAR2A, loss of luminescence, detects NanoLuc interference
Conditions: counter-screen for NanoLuc interference, 0.5 h, 20 µM, inhibitor

| Inh (PKA) | Inh (PKA) (Inh (PKA)) | Structure (SMILES) |
| --- | --- | --- |
| 5.354% |  | Cc1cc(-c2nc(-c3ccc(OC(F)(F)F)cc3)no2)nn1Cc1ccnc(N2CCN(C3CC3)CC2)c1 [UM0142175:01, BAY 87-2243] |
| 0.9058% |  | COc1cc2c(NC3CCN(CC4CCCCC4)CC3)nc(N3CCCN(C(C)C)CC3)nc2cc1OCCCN1CCCCC1 [UM0142178:01, UNC 0631] |
| 16.18% |  | CCn1c(=O)c(-c2ccc(-c3cncs3)cc2Cl)cc2cnc(Nc3ccc(N4CCN(C)CC4)cc3)nc21 [UM0142182:01, FRAX597] |
| 8.98% |  | O=C(NCc1ccncc1)C12CC3CC(C1)CC(c1ccc(Cl)cc1)(C3)C2 [UM0142183:01, ABC294640] |
| 3.047% |  | N#Cc1cc(-c2n[nH]c(-c3ccncc3)n2)ccn1 [UM0142184:01, Topiroxostat] |
| -0.993% |  | CN[C@H](CC(C)C)C(=O)N[C@H]1C(=O)N[C@@H](CC(N)=O)C(=O)N[C@H]2C(=O)N[C@H]3C(=O)N[C@H](C(=O)N[C@H](C(=O)O)c4cc(O)cc(O)c4-c4cc3ccc4O)[C@H](O)c3ccc(c(Cl)c3)Oc3cc2cc(c3O[C@@H]2O[C@H](CO)[C@@H](O)[C@H](O)[C@H]2O[C@H]2C[C@](C)(N)[C@H](O)[C@H](C)O2)Oc2ccc(cc2Cl)[C@H]1O [UM0142186:01, Vancomycin hydrochloride] |
|  | 1.044% | CCOC(=O)[C@@H](N)CCC(=O)N[C@@H](CSCc1ccccc1)C(=O)N[C@@H](C(=O)OCC)c1ccccc1 [UM0142188:01, Ezatiostat hydrochloride] |
| 1.846% |  | c1cc(OCCN2CCCCC2)cc(-c2n[nH]c3ccc(-c4nnc[nH]4)cc23)c1 [UM0142189:01, CC-401] |
| 65.39% |  | COc1cc(F)c(F)c(Nc2ccc(I)cc2F)c1NS(=O)(=O)C1(C[C@H](O)CO)CC1 [UM0142191:01, Refametinib] |
|  | 10.44% | CC(=O)Oc1cc2c(s1)CCN(C(C(=O)C1CC1)c1ccccc1F)C2 (stereo not shown) [UM0142193:01, Prasugrel hydrochloride] |
|  | 15.97% | C[S+]([O-])c1ccc(-c2nc(-c3ccc(F)cc3)c(-c3ccncc3)[nH]2)cc1 (stereo not shown) [UM0142194:01, SB 203580 hydrochloride] |
| 0.1491% |  | CN(C)C(=O)c1ccc(S(=O)(=O)c2ccc(NC(=O)[C@@](C)(O)C(F)(F)F)c(Cl)c2)cc1 [UM0142195:01, AZD7545] |
| 22.65% |  | C[C@@H]1CCNC(=O)c2cc3ccc(C(=O)Nc4nc5ccccc5n4CCCN(C)C)cc3n21 [UM0142196:01, BIX 02565] |
| -0.2342% |  | COc1cc2ncnc(Sc3nnc(C)s3)c2cc1OC [UM0142197:01, SKLB1002] |
|  | 38.66% | COc1ccc(S(=O)(=O)N(CCO)c2ccccc2CN(C)C/C=C/c2ccc(Cl)cc2)cc1 [UM0142198:01, KN-93 hydrochloride] |
| 9.933% |  | O=C1c2ccccc2C(=O)c2oc(-c3cccnc3)nc21 [UM0142199:01, SJB3-019A] |
| 1.128% |  | CC(C)(C)NCC(O)c1cc(O)cc(O)c1 (stereo not shown) [UM0142204:01, Terbutaline Sulfate] |
| 7.349% |  | CNC[C@H](O)c1ccc(O)c(O)c1 [UM0142209:01, L-Adrenaline] |
| 1.896% |  | COCCc1ccc(OCC(O)CNC(C)C)cc1 (stereo not shown) [UM0142210:01, Metoprolol Tartrate] |
| -0.5821% |  | CC(C)(C)NCC(O)c1ccc(O)c(CO)c1 (stereo not shown) [UM0142213:01, Salbutamol Sulfate] |

| Inh (PKA) | Inh (PKA) (Inh (PKA)) | Structure (SMILES) |
| --- | --- | --- |
| -0.4463% |  | c1ccc2c(c1)CCCC2C1=NCCN1 (stereo not shown) [UM0142214:01, Tetrahydrozoline HCl] |
| 2.146% |  | COc1ccc(C[C@@H]2c3cc(OC)c(OC)cc3CC[N@+]2(C)CCC(=O)OCCCCCOC(=O)CC[N@@+]2(C)CCc3cc(OC)c(OC)cc3[C@H]2Cc2ccc(OC)c(OC)c2)cc1OC [UM0142215:01, Cisatracurium Besylate] |
| 4.249% |  | Cc1cccc(Cc2c[nH]cn2)c1C [UM0142216:01, Detomidine HCl] |
| -0.5336% |  | COc1cc2c(cc1OC)CC(=O)N(CCCN(C)C[C@H]1Cc3cc(OC)c(OC)cc31)CC2 [UM0142218:01, Ivabradine HCl] |
| 7.933% |  | Cc1cccc(C(C)c2c[nH]cn2)c1C (stereo not shown) [UM0142219:01, Medetomidine HCl] |
| 1.045% |  | N=C(N)NC(=N)NCCc1ccccc1 [UM0142225:01, Phenformin HCl] |
| 29.29% |  | CCC(=O)Nc1cccc(Oc2nc(Nc3ccc(N4CCN(C)CC4)cc3OC)ncc2Cl)c1 [UM0142226:01, WZ4003] |
| 5.113% |  | CC(C)(C#N)c1cc(Cn2cncn2)cc(C(C)(C)C#N)c1 [UM0142230:01, Anastrozole] |
|  | 0.8501% | COc1ccc2[nH]c([S@@+]([O-])Cc3ncc(C)c(OC)c3C)nc2c1 [UM0142233:01, Esomeprazole Sodium] |
|  | 2.043% | CCCC(CCC)C(=O)O [UM0142234:01, Divalproex Sodium] |
| 91.42% |  | CCOC(=O)C1=C(C)NC(C)=C(C(=O)OC)C1c1cccc([N+](=O)[O-])c1 (stereo not shown) [UM0142235:01, Nitrendipine] |
|  | 10.79% | COc1cc2nccc(Oc3ccc(NC(=O)C4(C(=O)Nc5ccc(F)cc5)CC4)cc3)c2cc1OC [UM0142237:01, Cabozantinib malate (XL184)] |
| 15.4% |  | Cc1ccc(C(=O)Nc2ccc(CN3CCN(C)CC3)c(C(F)(F)F)c2)cc1C#Cc1cnc2[nH]ncc2c1 [UM0142238:01, GZD824] |
| 12.64% |  | CNC(=O)c1cc(Oc2ccc(NC(=O)Nc3cc(C(C)(C)C)nn3-c3ccc4ncccc4c3)c(F)c2)ccn1 [UM0142239:01, DCC-2036 (Rebastinib)] |
| 70.55% |  | O=C1Nc2ccc(I)cc2/C1=C/c1cc(Br)c(O)c(Br)c1 [UM0142240:01, GW5074] |
|  | 30.14% | CC(C)(C)c1nc(-c2cccc(NS(=O)(=O)c3c(F)cccc3F)c2F)c(-c2ccnc(N)n2)s1 [UM0142241:01, Dabrafenib (GSK2118436)] |
| 35.77% |  | CC1=C(C(=O)OC(C)C)C(c2cccc([N+](=O)[O-])c2)C(C(=O)OC2CN(C(c3ccccc3)c3ccccc3)C2)=C(N)N1 (stereo not shown) [UM0142244:01, Azelnidipine] |
| 81.79% |  | CCCC(=O)OCOC(=O)C1=C(C)NC(C)=C(C(=O)OC)C1c1cccc(Cl)c1Cl (stereo not shown) [UM0142245:01, Clevidipine Butyrate] |
| 92.04% |  | CCOC(=O)C1=C(C)NC(C)=C(C(=O)OC)C1c1cccc(Cl)c1Cl (stereo not shown) [UM0142246:01, Felodipine] |
| 92.96% |  | CCOC(=O)C1=C(C)NC(C)=C(C(=O)OCC)C1c1ccccc1/C=C/C(=O)OC(C)(C)C [UM0142247:01, Lacidipine] |

| Inh (PKA) | Inh (PKA) (Inh (PKA)) | Structure (SMILES) |
| --- | --- | --- |
| -0.8766% |  | CCCCN1CCCCC1C(=O)Nc1c(C)cccc1C (stereo not shown) [UM0142248:01, Bupivacaine HCl] |
| 0.7845% |  | CCCCN1CCCC[C@H]1C(=O)Nc1c(C)cccc1C [UM0142248:02, Levobupivacaine HCl] |
| 10.23% |  | CCc1c(C(=O)NCCc2ccc(N3CCCCC3)cc2)[nH]c2ccc(Cl)cc12 [UM0142252:01, Org 27569] |
| 0.5333% |  | CCN1/C(=C/C(C)=O)Sc2ccc(OC)cc21 [UM0142254:01, TG003] |
| 39.56% |  | Cn1cc(-c2[nH]c3cc(NC(=O)[C@H](N)C4CCCCC4)cc4c3c2C=NNC4=O)cn1 [UM0142256:01, PF-477736] |
| 54.88% |  | Nc1nccc(Oc2ccc(NC(=O)c3c[nH]cc(-c4ccc(F)cc4)c3=O)cc2F)c1Cl [UM0142257:01, BMS-794833] |
| 5.292% |  | CN1CCN(C2CCN(C(=O)Nc3cc(Oc4ccc(NC(=O)C5(C(=O)Nc6ccc(F)cc6)CC5)c(F)c4)ccn3)CC2)CC1 [UM0142258:01, Golvatinib (E7050)] |
| 33.4% |  | CN1C(C(=O)Nc2ccccn2)=C(O)c2sc(Cl)cc2S1(=O)=O [UM0142259:01, Lornoxicam] |
| 0.3149% |  | CCc1cccc2c3c([nH]c12)C(CC)(CC(=O)O)OCC3 (stereo not shown) [UM0142260:01, Etodolac] |
| -0.4888% |  | CC(C(=O)O)c1cccc(C(=O)c2ccccc2)c1 (stereo not shown) [UM0142261:01, Ketoprofen] |
|  | -1.185% | O=C(c1ccccc1)c1ccc2n1CCC2C(=O)O (stereo not shown) [UM0142262:01, Ketorolac tromethamine salt] |
| 28.18% |  | CC1(C)Cc2c(-c3ccccc3)c(-c3ccc(Cl)cc3)c(CC(=O)O)n2C1 [UM0142263:01, Licofelone] |
| 7.46% |  | Cc1ccc(Nc2c(F)cccc2Cl)c(CC(=O)O)c1 [UM0142264:01, Lumiracoxib] |
| 16.72% |  | CC(C(=O)O)c1ccc2c(c1)CC(=O)c1ccccc1S2 (stereo not shown) [UM0142265:01, Zaltoprofen] |
| 22.3% |  | COc1cc(-c2ncn(/C=C\C(=O)OC(C)C)n2)cc(C(F)(F)F)c1 [UM0142266:01, KPT-185] |
| 9.545% |  | O=C(/C=C\n1cnc(-c2cc(C(F)(F)F)cc(C(F)(F)F)c2)n1)N1CC(F)(F)C1 [UM0142267:01, KPT-276] |
| 12.01% |  | O=C1[C@@H]2[C@H]3CC[C@H](C3)[C@@H]2C(=O)N1C[C@@H]1CCCC[C@H]1CN1CCN(c2nsc3ccccc23)CC1 [UM0142271:01, Lurasidone HCl] |
| 0.7269% |  | CCN1CCCC1CNC(=O)c1cc(S(=O)(=O)CC)c(N)cc1OC (stereo not shown) [UM0142272:01, Amisulpride] |
| -0.01445% |  | CCCN[C@H]1CCc2nc(N)sc2C1 [UM0142273:01, Pramipexole] |

| Structure (SMILES) | Inh (PKA) | Inh (PKA) (Inh (PKA)) |
| --- | --- | --- |
| CCCCCOc1ccc(-c2ccc(-c3ccc(C(=O)N[C@H]4C[C@@H](O)[C@@H](O)NC(=O)[C@@H]5[C@@H](O)[C@@H](C)CN5C(=O)[C@H]([C@@H](C)O)NC(=O)[C@H]([C@H](O)[C@@H](O)c5ccc(O)cc5)NC(=O)[C@@H]5C[C@@H](O)CN5C(=O)[C@H]([C@@H](C)O)NC4=O)cc3)cc2)cc1 [UM0142187:01, Anidulafungin] ({pTerphenylCO(4''-OnC5H11)}-[Orn(4R-OH,5R-OH)]T[Hyp][hTyr(3S-OH,4S-OH)]T[Pro(3S-OH,4S-Me)]; lactam 1-C) | 1.476% |  |
| CN1[C@@H]2CC(O)C[C@H]1[C@@H]1O[C@@H]12 (stereo partly shown) [UM0142220:01, Scopine] | 1.123% |  |
